From patent US20220411362A1, “DITERPENOID COMPOUNDS THAT ACT ON PROTEIN KINASE C (PKC)” (K-Gen, Inc., priority 2019, published 2022)
Read-outs that look alike come from different tables or passages of the source.

Experiments:
[1] = test system: A549 non-small cell lung cancer cell line; assay: Proliferation of A549 (CellTiter Glo); type: cell-based; conditions: read-out: IC50 μM (A549 Cell Line)
Description: The diterpenoid compounds were tested in A549, a non-small cell lung cancer cell line harboring a K-Ras activating mutation. Briefly, A549 cells at a density of 1,000 cells/well were seeded in 96-well plates and incubated at 37° C. for 24 hours. A series of different concentrations of compound stocks (500×) were prepared by 3-fold serial dilution in DMSO. These compounds were further diluted in culture media and then added to cells so that the final DMSO concentration was not exceeding 0.25%. After 96 hours of incubation, 50 μL of CellTiter Glo reagent (Promega) was added to each well and luminescence was measured after 10 minutes using EnVision (PerkinElmer). Luminescence from cells treated with DMSO alone was set as Max and % of inhibition was calculated as follows: Inhibition %=(Max−Sample value)/Max×100. Data was analyzed using XL-fit software (ID Business Solutions Ltd.) and IC50, relative IC50, and % of top inhibition was calculated. Some of the compounds in this disclosure were very potent in blocking proliferation of A549 lung cancer cells at low nM range. In addition, potency of inhibiting A549 proliferation correlated well with its binding affinity to PKCs for this series of compounds. In other words, higher affinity binders had stronger inhibitory effects on A549 proliferation. This further support the notion that activation, rather than inhibition, of certain PKC isoforms is required to block proliferation of cancer cells, some of which may harbor K-Ras mutations. This is in sharp contrast to previous literature and common belief that inhibition of PKC is necessary to block cancer cell growth (Kang, 2014, New Journal of Science, 2014:1-36). Data presented here is in agreement with recent findings that many loss-of-function but not gain-of-function mutations of PKC isoforms have been identified in many human cancers (Antal et al., 2015, Cell, 160:489-502).

C1b domain of human PKCθ = target: T1, C1b domain of human PKCθ (Homo sapiens, UniProt Q04759); assay: Competitive 3H-PDBu binding to C1b domain of PKCθ
T1 construct: Genes encoding C1b domains of human PKCα, δ, ε, θ, and PKD1 (PKCμ) were synthesized; made in house; host or cells: E. coli BL21(DE3)
T1 sequence (Q04759 231-281 limits assumed): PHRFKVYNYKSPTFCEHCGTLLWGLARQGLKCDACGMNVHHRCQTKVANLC
Description: (§1) Compounds described in this disclosure were tested for binding affinity to C1b domain of PKC isoforms. Compound binding affinity to C1b domain of PKC isoforms was derived from competitive binding assay using radioactive tracer ^3H-PDBu and recombinant GST-C1b or full-length of human PKC proteins based on modified procedures from Methods in Molecular Biology, vol.
(§2) Genes encoding C1b domains of human PKCα, δ, ε, θ, and PKD1 (PKCμ) were synthesized and inserted into pGEX-2TK or pGEX-4T1 vectors for expression and production of GST-C1b proteins in E. coli BL21(DE3) via IPTG induction. The target proteins were purified by glutathione sepharose 4B and followed by ion exchange chromatography if needed to achieve purity >70%. Aliquots of the purified proteins were stored at −80 degree for binding assay (storage buffer: 20 mM Tris pH 8.0, 200 mM NaCl, 10% glycerol, 1 mM DTT).
(§3) The plate was incubated at 37° C. on a shaker at 300 rpm for 10 minutes and then put on ice for 20 minutes. […] The bottom of the filter plate was sealed and 50 μL of MicroScint-20 (PerkinElmer) cocktail was added to each well. ^3H-PDBu trapped in each well was counted using PerkinElmer MicroBeta2 Reader. Data were analyzed using GraphPad Prism5 with the model “log(inhibitor) vs. response-variable slope” to fit the IC50, and then IC50 was transformed to Ki using Cheng-Prusoff equation: Ki=IC50/(1+added radio ligand/Kd). Kd is the binding affinity of each protein preparation to ^3H-PDBu, determined experimentally.

C1b domain of human PKCδ = target: T2, C1b domain of human PKCδ (Homo sapiens, UniProt Q05655); assay: Competitive 3H-PDBu binding to C1b domain of PKCδ; conditions: 3H-PDBu competition
T2 construct: Genes encoding C1b domains of human PKCα, δ, ε, θ, and PKD1 (PKCμ) were synthesized; made in house; host or cells: E. coli BL21(DE3)
Description: as §1, §2, §3

C1b domain of human PKCα = target: T3, C1b domain of human PKCα (Homo sapiens, UniProt P17252); assay: biochemical; type: binding; conditions: Ki PKCα, 3H-PDBu competition
T3 construct: Genes encoding C1b domains of human PKCα, δ, ε, θ, and PKD1 (PKCμ) were synthesized; made in house; host or cells: E. coli BL21(DE3)
Description: as §1, §2
The plate was incubated at 37° C. on a shaker at 300 rpm for 10 minutes and then put on ice for 20 minutes. […] The bottom of the filter plate was sealed and 50 μL of MicroScint-20 (PerkinElmer) cocktail was added to each well. ^3H-PDBu trapped in each well was counted using PerkinElmer MicroBeta2 Reader. […] Kd is the binding affinity of each protein preparation to ^3H-PDBu, determined experimentally.

[2] = target: T4, C1b domain of human PKD1 (PKCμ) (Homo sapiens, UniProt Q15139); assay: biochemical; type: binding
T4 construct: Genes encoding C1b domains of human PKCα, δ, ε, θ, and PKD1 (PKCμ) were synthesized; made in house; host or cells: E. coli BL21(DE3)
T4 sequence (Q15139 270-320 limits assumed): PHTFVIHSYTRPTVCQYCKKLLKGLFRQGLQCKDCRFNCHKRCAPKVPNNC
Description: as §1, §2, §3

C1b domain of human PKCε = target: T5, C1b domain of human PKCε (Homo sapiens, UniProt Q02156); assay: Competitive 3H-PDBu binding to C1b domain of PKCε
T5 construct: Genes encoding C1b domains of human PKCα, δ, ε, θ, and PKD1 (PKCμ) were synthesized; made in house; host or cells: E. coli BL21(DE3)
Description: as §1, §2, §3

T2 sequence (Q05655 230-280 limits assumed): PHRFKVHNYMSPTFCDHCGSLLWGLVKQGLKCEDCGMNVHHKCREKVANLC
T5 sequence (Q02156 242-292 limits assumed): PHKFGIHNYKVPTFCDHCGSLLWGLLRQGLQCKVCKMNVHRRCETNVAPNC

Structure (SMILES) | IC50 ([1]; Homo sapiens, A549, 96 h) [µM] | Ki (C1b domain of human PKCθ) [nM] | Ki (C1b domain of human PKCδ; Ki PKCδ) [nM] | Ki (C1b domain of human PKCα) [nM] | Ki [2] [nM] | Ki (C1b domain of human PKCε) [nM] | IC50 ([1]; A549, 96 hours incubation, CellTiter Glo) [µM] | Ki (C1b domain of human PKCθ; C1b domain of human PKCθ, 3H-PDBu competition, read-out: Ki PKCθ) [nM] | Ki (C1b domain of human PKCδ; read-out: Ki PKCδ) [nM] | Ki ([2]; C1b domain of human PKD1 (PKCμ), 3H-PDBu competition, read-out: Ki PKD1/PKCμ) [nM] | Ki (C1b domain of human PKCε; C1b domain of human PKCε, 3H-PDBu competition, read-out: Ki PKCε) [nM]
CC1=C[C@H]2[C@@]3(O)[C@H](C)C[C@]4(OC(=O)C5CC6(CNC6)C5)[C@H]([C@@H]3C=C(CO)C[C@]2(O)C1=O)C4(C)C [Compound K101-C1305] | > 30 | 200 to 400 | 400 to 800 | > 8000 | 100 to 200 | 1000 to 2000 | – | – | – | – | –
CC1=C[C@H]2[C@@]3(O)[C@H](C)C[C@]4(OC(=O)/C=C/c5ccc(C(F)(F)F)cc5)[C@H]([C@@H]3C=C(CO)C[C@]2(O)C1=O)C4(C)C [Compound K101-C1313] | 0.06 to 0.1 | 1 to 30 | 1 to 30 | 200 to 400 | < 5 | 1 to 30 | – | – | – | – | –
CC1=C[C@H]2[C@@]3(O)[C@H](C)C[C@]4(OC(=O)CC5CC6(C5)CN(C(=O)OC(C)(C)C)C6)[C@H]([C@@H]3C=C(CO)C[C@]2(O)C1=O)C4(C)C [Compound K101-C1312] | 0.03 to 0.06 | 1 to 30 | 5 to 10 | 100 to 200 | < 5 | 1 to 30 | – | – | – | – | –
CC1=C[C@H]2[C@@]3(O)[C@H](C)C[C@]4(OC(=O)[C@H](N)CCCCCCc5ccc(C(F)(F)F)cc5)[C@H]([C@@H]3C=C(CO)C[C@]2(O)C1=O)C4(C)C [Compound K101-C135901] | 0.06 to 0.1 | 30 to 60 | 30 to 60 | 1000 to 2000 | 1 to 30 | – | – | – | – | – | –
CC1=C[C@H]2[C@@]3(O)[C@H](C)C[C@]4(OC(=O)[C@H](N)CCCCCCc5ccc(C(F)F)cc5)[C@H]([C@@H]3C=C(CO)C[C@]2(O)C1=O)C4(C)C [Compound K101-C137001] | 0.1 to 0.2 | 30 to 60 | 1 to 30 | 800 to 1000 | 1 to 30 | 30 to 60 | – | – | – | – | –
CCCCCCCCCCCCCC(=O)O[C@@H]1[C@@H](C)[C@@]2(O)[C@@H](C=C(CO)C[C@]3(O)C(=O)C(C)=C[C@@H]23)[C@@H]2C(C)(C)[C@]12OC(C)=O [Compound K103, 12-O-Tetradecanoylphorbol-13-acetate, reference compound] | – | – | – | – | – | – | < 0.001 | < 5 | < 5 | < 5 | < 5
CC1=C[C@H]2[C@@]3(O)[C@H](C)C[C@]4(OC(=O)CC5CC6(CNC6)C5)[C@H]([C@@H]3C=C(CO)C[C@]2(O)C1=O)C4(C)C [Compound K101-C1306] | > 30 | 100 to 200 | 100 to 200 | 1000 to 2000 | 1 to 30 | 200 to 400 | – | – | – | – | –
CC1=C[C@H]2[C@@]3(O)[C@H](C)C[C@]4(OC(=O)[C@H](CC5CCCCC5)N(C)C)[C@H]([C@@H]3C=C(CO)C[C@]2(O)C1=O)C4(C)C [Compound K101-C1365] | 0.6 to 1 | – | 100 to 200 | 4000 to 6000 | 30 to 60 | – | – | – | – | – | –
CC1=C[C@H]2[C@@]3(O)[C@H](C)C[C@]4(OC(=O)[C@@H](N)CC5CCC5)[C@H]([C@@H]3C=C(CO)C[C@]2(O)C1=O)C4(C)C [Compound K101-C1325] | 1 to 2 | – | 30 to 60 | 4000 to 6000 | 30 to 60 | – | – | – | – | – | –
CC1=C[C@H]2[C@@]3(O)[C@H](C)C[C@]4(OC(=O)[C@@H](N)CC(C)(C)C)[C@H]([C@@H]3C=C(CO)C[C@]2(O)C1=O)C4(C)C [Compound K101-C1328] | 0.2 to 0.6 | – | 1 to 30 | 200 to 400 | < 5 | – | – | – | – | – | –
